Consider six molecules from US12097262B2, “mTORC1 inhibitors” (THE REGENTS OF THE UNIVERSITY OF CALIFORNIA, priority 2014, dated 2024).

For data set [1], the system named is mTORC1 (pS6 S240/244, P-4EBP1). Put plainly: Western blot analysis in SNU-449 cells (E1010). It counts as cell-based, human. The settings on record: 3 hours (FIG. 13B). As for the experimental part:
FIGS. 13A-13B. FIG. 13A: MCF-7 cells were treated for 4 hours with E1035 and M1071 before harvesting. FIG. 13B: SNU-449 cells were treated with 3 hours with E1010 before harvesting. Cells were lysed and blotted for the indicated proteins. M1071 has the narrowest concentration range between mTORC1 and mTORC2 inhibition. The concentration range between mTORC1 and mTORC2 inhibition widens for E1035.
Cell Culture and Western Blot Analysis. Cells were grown in 6-well plates and treated with inhibitor at the indicated concentrations or with vehicle (0.1% DMSO). Treated cells were lysed, and lysates were resolved by SDS-PAGE, transferred to nitrocellulose and blotted. All antibodies were purchased from Cell Signaling Technology.
A general note: In western blotting, separated proteins are transferred to a membrane and probed.

Another data set has as its system SNU-398. Put plainly: Cell viability assay (CellTiter-Glo), SNU-398. The settings on record: for EC50: 72 h after compound treatment; for inhibition at 10 µM: read-out: % inhibition at 10 μM SNU-398, 10 μM. The format is cell-based, human.
Another data set concerns 786-O. Nature of the data set: Cell viability assay (CellTiter-Glo), 786-O. The format is cell-based, human. A general note: ATP-based viability assays read luminescence as a measure of living cells.
Another data set relates to HCT-15. Put plainly: Cell viability assay (CellTiter-Glo), HCT-15. It counts as cell-based, human. The settings on record: for EC50: 72 h after compound treatment.
The next data set relates to SNU-182. Nature of the data set: Cell viability assay (CellTiter-Glo), SNU-182. The format is cell-based, human. To be noted: for EC50: 72 h after compound treatment; for inhibition at 10 µM: read-out: % inhibition at 10 μM SNU-182, 10 μM.
Data set [2] concerns mTORC1 and mTORC2 downstream signaling (pS6, p4E-BP1, pAkt S473). Nature of the data set: Downstream signaling of mTOR by immunoblotting, dose dependence, HCT-15 and SNU-449 cells. It counts as cell-based, human. The settings on record: immunoblot at 3 h after compound treatment.
Experimental: Downstream signaling of mTOR was tested using an immunoblotting method at 3 h after compound treatment.
The subject of a further data set is SNU-449. Nature of the data set: Cell viability assay (CellTiter-Glo), SNU-449. The settings on record: for EC50: read-out: EC50 (nM) SNU-449; for inhibition at 10 µM: SNU-449, read-out: % inhibition at 10 μM SNU-449.
The next data set addresses mTOR (Homo sapiens, UniProt P42345). Nature of the data set: Potency of the ASi mTOR inhibition. It counts as biochemical.
For data set [3], the system named is mTORC1 and mTORC2 signaling (pS6, p4E-BP1, pAkt S473). Nature of the data set: Time-course effects on mTORC1 and mTORC2 signaling in SNU-449. It counts as cell-based, human. To be noted: 0.33-24 h. The method, then: Cellular Signaling Effects of Class mTOR Inhibitors. Cells were seeded in 60 mm cell culture dishes and incubated 1-2 days until 70-90% confluency. Cells were treated with compound solution in DMSO (1000×) and incubated at 37° C. in a 5% CO2 humidified incubator for a given length of time. Whole cell lysates were prepared using RIPA buffer (R^3792) (TEKnova, Hollister, CA USA) with a phosphatase inhibitor cocktail tablet PhosStop and a protease inhibitor cocktail tablet cOmplete Mini (Roche Diagnostics GmbH, Mannheim, Germany). Cell lysates (based on a certain amount of protein determined by Pierce BCA Protein Assay Kit (PI-23225) (Thermo Fisher Scientific Inc., Waltham, MA USA)) were electrophoresed using a Criterion Tris-HCl gel 4-20% (Bio-Rad Laboratories, Hercules, CA USA) and transferred to a nitrocellulose membrane (162-0115) (Bio-Rad Laboratories, Hercules, CA USA). After incubation for more than 1 h with a blocking buffer at room temperature, membranes were labeled with primary antibodies by overnight incubation at 4° C., followed by 1 hour incubation with horseradish peroxidase-conjugated (HRP-conjugated) secondary antibodies at room temperature. The following antibodies were used for immunoblot: phospho-Akt (S473) (#9271), phospho-Akt (T308) (#2965), total-Akt (#9272), phospho-S6 (Ser240/Ser244) (#2215L), S6 ribosomal protein (#2217), phospho-4E-BP1 (T37/T46) (#2855), total 4E-BP1 (#9644) (Cell Signaling Technology, Inc., Danvers, MA USA), FKBP12 (sc-28814) mouse β-actin (sc-8432) (Santa Cruz Biotechnology, Inc., Dallas, Texas USA), anti-rabbit IgG conjugated with horseradish peroxidase (HRP) (#7074), and anti-mouse IgG conjugated with HRP (#7076) (Cell Signaling Technology, Inc., Danvers, MA USA). Nitrocellulose membranes were exposed with SuperSignal® West Pico Chemiluminescent Substrate or Femto Maximum Sensitivity Substrate (Thermo Fisher Scientific Inc., Waltham, MA USA) and signals were recorded on a CL-Xposure film (Thermo Fisher Scientific Inc., Waltham, MA USA).

The test system of data set [4] is TORC1 and TORC2 outputs (p4E-BP1, pS6). Put plainly: Drug washout experiment in SNU-449 cells. To be noted: 30 nM for 3 h, then washout. It counts as cell-based, human. As for the experimental part: Cellular Signaling Effects of Class mTOR Inhibitors. Cells were seeded in 60 mm cell culture dishes and incubated 1-2 days until 70-90% confluency. Cells were treated with compound solution in DMSO (1000×) and incubated at 37° C. in a 5% CO2 humidified incubator for a given length of time. […] After incubation for more than 1 h with a blocking buffer at room temperature, membranes were labeled with primary antibodies by overnight incubation at 4° C., followed by 1 hour incubation with horseradish peroxidase-conjugated (HRP-conjugated) secondary antibodies at room temperature. […] Nitrocellulose membranes were exposed with SuperSignal® West Pico Chemiluminescent Substrate or Femto Maximum Sensitivity Substrate (Thermo Fisher Scientific Inc., Waltham, MA USA) and signals were recorded on a CL-Xposure film (Thermo Fisher Scientific Inc., Waltham, MA USA).
Drug Washout Experiment. SNU-449 cells were treated with 30 nM of compounds for 3 h. The medium was aspirated out and cells were washed with fresh 10% FBS in RPMI1640 medium. Then, cells were incubated with fresh 10% FBS in RPMI1640 medium at 37° C. for described time period.

Data set [5] is described as follows: Effect on blood glucose level in mice. To be noted: mice (n=3), intraperitoneal, Rapamycin treatment group (5 mg/kg, FIG. 10).
Text: Effect on blood glucose level. […] Blood glucose levels (mg/dL) were monitored.

Where two headings read alike, the source gives them in different places.

Broadly, the EC50 is the concentration that produces a half-maximal response. In general, inhibition refers to the share of the control response that was lost under treatment. For orientation: IC50 means the point on the concentration scale where inhibition reaches its midpoint. Low values mean higher potency, high ones lower potency.

Experimental for 786-O: (§1) The cells were grown in appropriate medium (vender recommended) supplemented with 10% heat-inactivated fetal bovine serum (FBS), in tissue culture dishes placed in a humidified incubator maintained at 37° C. in an atmosphere of 5% CO2 and 95% air.
(§2) Cell viability assay. Cells were seeded in a 96-multiwell plate at 3000-4000 cells per well in medium containing FBS and cells were incubated at 37° C. overnight. After 18-20 h, compounds in 10×DMSO solution (n=3) were added to the cells and were incubated for additional 3 days in a humidified incubator in an atmosphere of 5% CO2 and 95% air. After treatment of Cell Titer-Glo® luminescent cell viability assay reagent (Promega Corporation, Madison, WI USA), the luminescence value was recorded using SpectraMax M5 Multi-Mode Microplate Readers (Molecular Devices, LLC, Sunnyvale, CA USA). Concentration response curves were generated on GraphPad Prism (GraphPad Software, La Jolla, CA USA) by calculating the decrease in luminescence values in compound-treated samples relative to the DMSO controls.
(§3) Anti-proliferative effects of compounds were evaluated in human colorectal cancer HCT-15 cells (mutation: KRAS, PIK3CA), human hepatocellular carcinoma SNU-449 (mutation: TP53, CDKN2A), SNU-398 (mutation: CTNNB 1), SNU-182 (mutation: TP53) and renal adenocarcinoma 786-O (mutation: VHL, PTEN, TP53, CDKN2A) in 72 h after compound treatment.
Experimental for SNU-182: as §1, §2, §3
Experimental for SNU-398: as §1, §2, §3

`COc1ccc2[nH]c(-c3nn(CCCCNC(=O)CCOCCOCCOCCOCCOCCOCCOCCOCCn4cc(COCCO[C@@H]5CC[C@@H](C[C@@H](C)[C@@H]6CC(=O)[C@H](C)/C=C(\C)[C@@H](O)[C@@H](OC)C(=O)[C@H](C)C[C@H](C)/C=C/C=C/C=C(\C)[C@@H](OC)C[C@@H]7CC[C@@H](C)[C@@](O)(O7)C(=O)C(=O)N7CCCC[C@H]7C(=O)O6)C[C@H]5OC)nn4)c4ncnc(N)c34)cc2c1` [Compound E1010]: in [1], the “inhibition of P-4EBP1” value is “little or no inhibition”, the “inhibition of pS6 (S240/244)” value is listed as “inhibition” and the mTORC1 inhibition result was “only partially inhibits mTORC1”.
Consider `COC1CC2CCC(C)C(O)(O2)C(=O)C(=O)N2CCCCC2C(=O)OC(C(C)CC2CCC(OCCOCc3cn(CCOCCOCCOCCOCCOCCOCCOCCNC(=O)CCCCn4nc(-c5ccc6oc(N)nc6c5)c5c(N)ncnc54)nn3)C(OC)C2)CC(=O)C(C)C=C(C)C(O)C(OC)C(=O)C(C)CC(C)C=CC=CC=C1C` (stereo not shown) [Compound M-1111, 40-O-(2-((1-(29-(4-amino-3-(2-aminobenzo[d]oxazol-5-yl)-1H-pyrazolo[3,4-d]pyrimidin-1-yl)-25-oxo-3,6,9,12,15,18,21-heptaoxa-24-azanonacosyl)-1H-1,2,3-triazol-4-yl)methoxy)ethyl)-rapamycin], for which the “% inhibition at 10 μM SNU-398” value in the data set on SNU-398 (10 μM) is on record as “+++ (50% < +++ ≤ 100%)”. Moreover, the EC50 in the data set with SNU-398 is less than 10 nM; in the data set on 786-O (72 h after compound treatment), 10 to 50 nM; in the data set on HCT-15, 10 to 50 nM; with SNU-182, less than 10 nM; in the data set with SNU-449 (SNU-449, 72 h after compound treatment), less than 10 nM. The “% inhibition at 10 μM 786-O” value with 786-O (10 μM) is recorded as “+++ (50% < +++ ≤ 100%)”. Moreover, the “% inhibition at 10 μM HCT-15” value in the data set with HCT-15 (10 μM) is “+++ (50% < +++ ≤ 100%)”. Further, in the data set on SNU-182 (10 μM), the “% inhibition at 10 μM SNU-182” value was “++ (25% < ++ ≤ 50%)”. In addition, the “mTORC1/2 downstream inhibition (pS6, p4E-BP1 and pAkt S473)” value in [2] is “stronger inhibition of mTORC1 signaling (pS6 and p4E-BP1) compared to mTORC2 downstream Akt S473 phosphorylation”. Further, the p4E-BP1 inhibition result in data set [2] is given as “complete p4E-BP1 inhibition at drug concentrations in which pAkt S473 is not inhibited”. In addition, in the data set with SNU-449 (10 μM, SNU-449), the “% inhibition at 10 μM SNU-449” value was “++ (25% < ++ ≤ 50%)”.
For the molecule `CO[C@H]1C[C@@H]2CC[C@@H](C)[C@@](O)(O2)C(=O)C(=O)N2CCCC[C@H]2C(=O)O[C@H]([C@H](C)C[C@@H]2CC[C@@H](OCCOCc3cn(CCCCn4nc(-c5ccc6oc(N)nc6c5)c5c(N)ncnc54)nn3)[C@H](OC)C2)CC(=O)[C@H](C)/C=C(\C)[C@@H](O)[C@@H](OC)C(=O)[C@H](C)C[C@H](C)/C=C/C=C/C=C/1C` [Compound M-1115, 40-O-(2-((1-(4-(4-amino-3-(2-aminobenzo[d]oxazol-5-yl)-^1H-pyrazolo[3,4-d]pyrimidin-1-yl)butyl)-1H-1,2,3-triazol-4-yl)methoxy)ethyl)-rapamycin], the EC50 was 10 to 50 nM in the data set with SNU-398 (Homo sapiens); more than 100 nM with 786-O (Homo sapiens, 786-0, 72 h after compound treatment); more than 100 nM in the data set with HCT-15 (Homo sapiens); 10 to 50 nM in the data set with SNU-182 (Homo sapiens); more than 100 nM with SNU-449 (Homo sapiens, SNU-449, 72 h). The p4E-BP1 inhibition result in data set [2] is “weaker p4E-BP1 inhibition”.
As for `CO[C@H]1C[C@@H]2CC[C@@H](C)[C@@](O)(O2)C(=O)C(=O)N2CCCC[C@H]2C(=O)O[C@H]([C@H](C)C[C@@H]2CC[C@@H](OCCOCc3cn(CCOCCOCCOCCOCCC(=O)NCCCCn4nc(-c5ccc6oc(N)nc6c5)c5c(N)ncnc54)nn3)[C@H](OC)C2)CC(=O)[C@H](C)/C=C(\C)[C@@H](O)[C@@H](OC)C(=O)[C@H](C)C[C@H](C)/C=C/C=C/C=C/1C` [Compound M-3059, 40-O-(2-((1-(20-(4-amino-3-(2-aminobenzo[d]oxazol-5-yl)-1H-pyrazolo[3,4-d]pyrimidin-1-yl)-15-oxo-3,6,9,12-tetraoxa-16-azaicosyl)-1H-1,2,3-triazol-4-yl)methoxy)ethyl)-rapamycin], the inhibition at 10 µM with SNU-398 (Homo sapiens) was 50 to 100%; with SNU-182 (Homo sapiens) it was less than 25%; in the data set on SNU-449 (Homo sapiens), less than 25%.
The molecule `COc1ccc2[nH]c(-c3nn(C(C)C)c4ncnc(N)c34)cc2c1` [MeO-PP242] displayed an IC50 against mTOR of more than 10000 nM.
With `CO[C@H]1C[C@@H]2CC[C@@H](C)[C@@](O)(O2)C(=O)C(=O)N2CCCC[C@H]2C(=O)O[C@H]([C@H](C)C[C@@H]2CC[C@@H](O)[C@H](OC)C2)CC(=O)[C@H](C)/C=C(\C)[C@@H](O)[C@@H](OC)C(=O)[C@H](C)C[C@H](C)/C=C/C=C/C=C/1C` [Rapamycin, (3 S,6R,7E,9R,10R,12R,14S,15E,17E,19E,21S,23 S,26R,27R,34aS)-9,10,12,13,14,21,22,23,24,25,26,27,32,33,34,34a-hexadecahydro-9,27-dihydroxy-3-[(1R)-2-[(1S,3R,4R)-4-hydroxy-3-methoxycyclohexyl]-1-methylethyl]-10,21-dimethoxy-6,8,12,14,20,26-hexamethyl-23,27-epoxy-3H-pyrido[2,1-c][1,4]-oxaazacyclohentriacontine-1,5,11,28,29(4H,6H,31H)-pentone, reference compound], the inhibition at 10 µM was 25 to 50% in the data set on SNU-398 (Homo sapiens); less than 25% with 786-O (Homo sapiens, 786-0, read-out: % inhibition at 10 μM 786-O, 10 μM); 25 to 50% in the data set with HCT-15 (Homo sapiens, read-out: % inhibition at 10 μM HCT-15, 10 μM); less than 25% in the data set with SNU-182 (Homo sapiens); less than 25% with SNU-449 (Homo sapiens). In addition, in data set [3], the “p4E-BP1 inhibition, time course” value is “moderate inhibitory activity”. Further, the “phosphorylation of Akt S473, time course” value in [3] was “transient feedback activation on Akt S473 at 1 and 3 h, and then a slight inhibition was observed at 24 h”. Further, in data set [4], the “maintenance of effects after washout” value is listed as “maintained longer after washout compared to asTORi”. Besides, the blood glucose level entry in data set [5] was “no increase in blood glucose levels”.
